Data: patent US8715927B2, “Inhibition of DNA polymerases to augment chemotherapeutic and antimicrobial agents” (priority 2008, dated 2014)

What was measured:
avidin = avidin (Gallus gallus, UniProt P02701); conditions: non-covalent interaction; cited from earlier work
COS-7 cells = assay: Mutagenesis assay: site-specifically modified pMS2 shuttle vector replicated in COS-7 cells; format: cell-based; conditions: for Deletions / Single base substitutions G to A / Single base substitutions G to C / Single base substitutions G to T: number among colonies scored, pMS2 vector, COS-7 cells; for Frequency of mutations: pMS2 vector replicated in COS-7 cells
Experimental: Mutagenesis assays were performed using a previously developed pMS2 shuttle vector/COS-7 system (Moriya, Proc. Natl. Acad. Sci. U.S.A. 90:1122-1126, 1993). In its single-stranded form, the pMS2 vector contains a hairpin loop with an internal EcoRV restriction site. Incorporation of control non-damaged oligodeoxynucleotides into this site was accomplished in the presence of a scaffold DNA according to a published method (Kanuri et al., J. Biol. Chem. 277:18257-18265, 2002). To create a single-stranded pMS2 containing site-specific interstrand crosslink, the procedure was modified as described below.
Oligodeoxynucleotides containing a model acrolein-derived site-specific interstrand crosslink (FIG. 1A and FIG. 1B) were designed in such a way that peripheral regions of the longer strands (36-mer) were complementary to the vector sequences immediately adjacent to the EcoRV site. A circular single-stranded pMS2 vector (approximately 15 pmol) was digested with 40 units of EcoRV (New England BioLabs) for 3 hours at 37° C. to generate a linear DNA. 5′-phosphorylated crosslinked inserts (60 pmol) were added to the linear single-stranded pMS2 (15 pmol), and ligated using 60 units of T4 DNA ligase (New England BioLabs) for 48 hours at 4° C. To obtain double-stranded pMS2 vectors, the 36-mer strand of the crosslink or the scaffold oligodeoxynucleotide in control DNA was extended using 5 units of T4 DNA polymerase (New England BioLabs) and 1 mM dNTPs at 37° C. for 1 hour. A newly-synthesized strand was concomitantly sealed using 5 units of T4 DNA ligase (New England BioLabs). The creation of double-stranded pMS2 was verified by PstI (New England BioLabs) digestion.
Transfection of pMS2 vector into COS-7 cells, isolation of progeny DNA, selection of individual clones by E. coli transformation, and differential hybridization analyses were performed as previously described (Moriya, Proc. Natl. Acad. Sci. U.S.A. 90:1122-1126, 1993; Kanuri et al., J. Biol. Chem. 277:18257-18265, 2002).
Previous studies have established that in human cells, crotonaldehyde-mediated N^2-N^2-guanine ICLs were repaired mostly (>94%) in an error-free manner (Liu et al., Biochemistry 45:12898-12905, 2006). Since acrolein-mediated ICLs are structurally similar to crotonaldehyde-mediated ICLs, it is possible that model acrolein-derived N^2-N^2-guanine ICL (FIG. 1A) would not be highly mutagenic when plasmid vectors containing this lesion were replicated in mammalian cells. In order to test this, oligodeoxynucleotides were constructed to contain a site-specific ICL in either CpG or GpC sequence contexts (FIG. 1B) and engineered into a double-stranded DNA shuttle vector (pMS2). The vector was replicated in COS-7 cells, and progeny DNAs were analyzed to determine frequency and types of mutations. In both the CpG and GpC sequence contexts, the mutation frequencies were very low, 3.0% and 3.2%, respectively (Table 2).

E. coli DNA pol II = target: T1, E. coli DNA pol II (Escherichia coli, UniProt P21189); assay: Primer extension assay by E. coli DNA pol II; format: biochemical; conditions: pol II 0.3 nM, time course
T1 construct: made in house
Experimental: Control, non-damaged and ICL-containing DNA substrates were used to analyze replication from a −10 primer by pol II (FIG. 7A) and pol IV (FIGS. 7B and 7C). Using the non-damaged primer-template substrates pol II catalyzed a highly processive polymerization to yield full-length primer extension products. […] ICL bypass by pol II was not observed even when reactions were conducted with increased enzyme concentrations (up to a 1000-fold excess relative to DNA substrate).

E. coli DNA pol IV = E. coli DNA pol IV (Escherichia coli, UniProt Q47155); conditions: −10 primer, 30-minute reactions, 37° C.
Chain of E. coli DNA pol IV (Q47155 whole entry): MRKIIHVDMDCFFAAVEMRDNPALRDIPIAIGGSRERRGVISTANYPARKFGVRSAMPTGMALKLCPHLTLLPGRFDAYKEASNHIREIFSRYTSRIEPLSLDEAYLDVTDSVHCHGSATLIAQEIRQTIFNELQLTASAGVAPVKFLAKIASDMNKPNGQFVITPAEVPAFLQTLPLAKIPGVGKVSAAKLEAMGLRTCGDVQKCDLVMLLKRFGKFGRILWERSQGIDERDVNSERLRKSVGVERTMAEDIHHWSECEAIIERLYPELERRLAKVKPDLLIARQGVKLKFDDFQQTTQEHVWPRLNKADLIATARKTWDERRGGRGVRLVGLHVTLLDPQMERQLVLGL
Experimental: The primer extension assays were conducted in a 10 μl reaction volume containing pol II or pol IV, 5 nM primer-template, 5 mM MgCl2, 100 μM dNTPs, 25 mM Tris-HCl (pH 7.5), 25 mM DTT, 0.5 mg/ml BSA and 10% glycerol. Reactions were carried out at 37° C. for 30 minutes followed by termination of the reaction with a solution containing 95% formamide, 10 mM EDTA and 0.03% (w/v) xylene cyanol and 0.03% (w/v) bromophenol blue. DNA replication products were separated through a 15% denaturing polyacrylamide gel at 2000 V and later analyzed on a Phosphor Imager (GE Healthcare).

T1 sequence (P21189 whole entry): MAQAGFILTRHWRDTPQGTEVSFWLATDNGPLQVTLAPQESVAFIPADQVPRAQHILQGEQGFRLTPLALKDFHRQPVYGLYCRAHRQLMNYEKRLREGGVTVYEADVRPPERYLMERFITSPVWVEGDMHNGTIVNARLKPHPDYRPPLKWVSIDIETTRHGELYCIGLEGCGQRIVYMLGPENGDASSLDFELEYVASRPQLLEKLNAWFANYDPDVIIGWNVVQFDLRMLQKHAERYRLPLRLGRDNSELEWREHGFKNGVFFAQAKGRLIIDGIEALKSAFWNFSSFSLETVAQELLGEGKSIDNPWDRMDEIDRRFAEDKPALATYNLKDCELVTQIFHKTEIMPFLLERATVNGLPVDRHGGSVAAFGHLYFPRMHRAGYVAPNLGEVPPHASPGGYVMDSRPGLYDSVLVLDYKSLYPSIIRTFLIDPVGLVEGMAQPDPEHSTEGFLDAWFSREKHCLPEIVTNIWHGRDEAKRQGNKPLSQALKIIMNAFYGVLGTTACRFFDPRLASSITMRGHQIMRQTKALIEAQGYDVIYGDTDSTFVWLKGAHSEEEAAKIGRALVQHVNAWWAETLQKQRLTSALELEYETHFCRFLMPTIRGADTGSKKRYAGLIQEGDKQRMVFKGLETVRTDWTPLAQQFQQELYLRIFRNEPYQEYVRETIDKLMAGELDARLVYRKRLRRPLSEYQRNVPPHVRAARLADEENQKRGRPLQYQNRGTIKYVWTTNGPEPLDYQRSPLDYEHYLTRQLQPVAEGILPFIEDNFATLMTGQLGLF
Chain of avidin (P02701 25-152, species assumed): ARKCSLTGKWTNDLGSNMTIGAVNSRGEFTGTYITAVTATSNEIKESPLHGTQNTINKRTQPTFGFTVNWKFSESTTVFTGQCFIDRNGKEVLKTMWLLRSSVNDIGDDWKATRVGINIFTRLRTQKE

Compound | Ka of avidin-biotin complex (avidin) | Deletions (COS-7 cells) | Single base substitutions G to A (COS-7 cells) | Single base substitutions G to C (COS-7 cells) | Single base substitutions G to T (COS-7 cells) | Frequency of mutations (COS-7 cells) | replication from −10 primer by pol II (E. coli DNA pol II) | replication by increasing concentrations of pol IV (E. coli DNA pol IV)
O=C(O)CCCC[C@@H]1SC[C@@H]2NC(=O)N[C@@H]21 [biotin] | 10^15 M^−1 |  |  |  |  |  |  | 
CpG ICL: SEQ ID NO: 1 and 2 joined by G-(CH2)3-G; model acrolein-derived N2-N2-guanine ICL in CpG context (chain 1 GCTAGCGAGTCC; chain 2 CCTGCAAGCGATGGACTCGCTAGCATCGCTGGTACC; listed as DNA, chemistry not fully specified) |  | 0 | 0 | 0 | 2 | 3.0% |  | 
GpC ICL: SEQ ID NO: 3 and 4 joined by G-(CH2)3-G; model acrolein-derived N2-N2-guanine ICL in GpC context (chain 1 GCTGAGCGATCC; chain 2 CCTGCAAGCGATGGATCGCTCAGCATCGCTGGTACC; listed as DNA, chemistry not fully specified) |  | 5 | 4 | 1 | 1 | 3.2% |  | 
ICL1: crosslinked oligodeoxynucleotide, SEQ ID NO: 5 and 6 joined by G-(CH2)3-G; models DNA product of dual incision around the ICL (chain 1 GATGCTANCYTGTC; chain 2 AGCGATAGACACYATAGCATCGCTGGTACCGACTCG; crosslinked oligodeoxynucleotide, G-(CH2)3-G interstrand crosslink, further chemistry not given here) |  |  |  |  |  |  | unable to carry out effective strand-displacement synthesis | very poor strand displacement synthesis
